This note sets out measurements from patent US10040759B2, “Substituted azetidinyl compounds as GlyT1 inhibitors” (DART NEUROSCIENCE (CAYMAN) LTD., priority 2014, dated 2018).

This assay has as its target T1, GlyT1 (Homo sapiens, UniProt P48067).
T1 construct: expressed in transfected cells
T1 sequence (P48067 1-706): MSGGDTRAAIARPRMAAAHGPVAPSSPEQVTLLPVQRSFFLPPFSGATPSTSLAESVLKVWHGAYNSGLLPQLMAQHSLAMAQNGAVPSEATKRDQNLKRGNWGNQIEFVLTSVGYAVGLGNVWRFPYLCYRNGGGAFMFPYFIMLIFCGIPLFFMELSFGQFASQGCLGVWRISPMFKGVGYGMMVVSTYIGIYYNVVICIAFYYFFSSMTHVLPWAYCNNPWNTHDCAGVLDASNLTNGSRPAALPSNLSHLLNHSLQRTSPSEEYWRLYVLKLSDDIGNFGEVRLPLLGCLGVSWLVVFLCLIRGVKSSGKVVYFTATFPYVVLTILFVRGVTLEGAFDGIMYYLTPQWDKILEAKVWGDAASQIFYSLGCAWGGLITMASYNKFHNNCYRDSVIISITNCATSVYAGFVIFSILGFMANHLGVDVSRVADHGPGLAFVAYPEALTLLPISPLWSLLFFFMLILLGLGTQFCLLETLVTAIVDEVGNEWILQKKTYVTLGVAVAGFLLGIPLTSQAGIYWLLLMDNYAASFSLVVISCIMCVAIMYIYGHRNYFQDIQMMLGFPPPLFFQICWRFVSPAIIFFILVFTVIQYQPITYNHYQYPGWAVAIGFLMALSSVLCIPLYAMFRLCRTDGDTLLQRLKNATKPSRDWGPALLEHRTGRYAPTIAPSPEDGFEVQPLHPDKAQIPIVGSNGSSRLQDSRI
The experiment in a line: Glycine Transporter 1 (GlyT1) uptake assay, scintillation proximity assay of [14C]-glycine uptake. It is filed as cell-based. To be noted: [14C]-glycine uptake; read-out: GlyT1 (pIC50) (converted). The gist of the method:
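IC50 values were derived by four-parameter logistic fitting of counts. The 2× compound solutions were made by 1:100 dilution into HBSS of DMSO serial dilutions.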
Background: In a scintillation proximity assay essentially only radioactivity close to the scintillant gives light.
For `COc1c(C#N)ccc(OC(C)C(F)(F)F)c1C(=O)N1CC(c2ccccc2C(F)(F)F)C1` (centres unmarked) [Example 90, 2-Methoxy-3-({3-[2-(trifluoromethyl)phenyl]azetidin-1-yl}carbonyl)-4-[(1,1,1-trifluoropropan-2-yl)oxy]benzonitrile], the IC50 is under 100 nM.
For the molecule `COc1c(C#N)ccc(OC(C)C(F)(F)F)c1C(=O)N1CC(c2ccc(F)cc2)C1` (centres unmarked) [Example 91, 3-{[3-(4-Fluorophenyl)azetidin-1-yl]carbonyl}-2-methoxy-4-[(1,1,1-trifluoropropan-2-yl)oxy]benzonitrile], the IC50 was under 100 nM.
On to `COc1c(C#N)ccc(OC(C)C(F)(F)F)c1C(=O)N1CC(c2ccccc2F)C1` (centres unmarked) [Example 92, 3-{[3-(2-Fluorophenyl)azetidin-1-yl]carbonyl}-2-methoxy-4-[(1,1,1-trifluoropropan-2-yl)oxy]benzonitrile], for which the IC50 was 100 to 1000 nM.
Regarding `COc1c(C#N)ccc(OC(C)C(F)(F)F)c1C(=O)N1CC(c2ccccn2)C1` (centres unmarked) [Example 93, 2-Methoxy-3-{[3-(pyridin-2-yl)azetidin-1-yl]carbonyl}-4-[(1,1,1-trifluoropropan-2-yl)oxy]benzonitrile], the IC50 was under 100 nM.
In the case of `COc1ccc(OC2CN(C(=O)c3c(OC(C)C(F)(F)F)ccc(C#N)c3OC)C2)cc1` (centres unmarked) [Example 94, 2-Methoxy-3-{[3-(4-methoxyphenoxy)azetidin-1-yl]carbonyl}-4-[(1,1,1-trifluoropropan-2-yl)oxy]benzonitrile], the IC50 was over 10000 nM.
On to `COc1c(C#N)ccc(OC(C)C(F)(F)F)c1C(=O)N1CC(c2ccc(C#N)cc2)C1` (centres unmarked) [Example 95, 3-{[3-(4-Cyanophenyl)azetidin-1-yl]carbonyl}-2-methoxy-4-[(1,1,1-trifluoropropan-2-yl)oxy]benzonitrile], for which the IC50 was 100 to 1000 nM.
Take `COc1ccc(C2CN(C(=O)c3c(OC(C)C(F)(F)F)ccc(C#N)c3OC)C2)cc1` (centres unmarked) [Example 96, 2-Methoxy-3-{[3-(4-methoxyphenyl)azetidin-1-yl]carbonyl}-4-[(1,1,1-trifluoropropan-2-yl)oxy]benzonitrile]: the IC50 was under 100 nM.
In the case of `COc1c(C#N)ccc(OC(C)C(F)(F)F)c1C(=O)N1CC(c2ccc(Cl)cc2)C1` (centres unmarked) [Example 97, 3-{[3-(4-Chlorophenyl)azetidin-1-yl]carbonyl}-2-methoxy-4-[(1,1,1-trifluoropropan-2-yl)oxy]benzonitrile], the IC50 was 100 to 1000 nM.
Consider `COc1c(C#N)ccc(OC(C)C(F)(F)F)c1C(=O)N1CC(c2ccc(C(F)(F)F)cc2)C1` (centres unmarked) [Example 98, 2-Methoxy-3-({3-[4-(trifluoromethyl)phenyl]azetidin-1-yl}carbonyl)-4-[(1,1,1-trifluoropropan-2-yl)oxy]benzonitrile], for which the IC50 is 100 to 1000 nM.
In the case of `COc1c(C#N)ccc(OC(C)C(F)(F)F)c1C(=O)N1CC(c2cccc(C(F)(F)F)c2)C1` (centres unmarked) [Example 99, 2-Methoxy-3-({3-[3-(trifluoromethyl)phenyl]azetidin-1-yl}carbonyl)-4-[(1,1,1-trifluoropropan-2-yl)oxy]benzonitrile], the IC50 is under 100 nM.
For the molecule `COc1c(C#N)ccc(OC(C)C(F)(F)F)c1C(=O)N1CC(c2cc(F)cc(F)c2)C1` (centres unmarked) [Example 100, 3-{[3-(3,5-Difluorophenyl)azetidin-1-yl]carbonyl}-2-methoxy-4-[(1,1,1-trifluoropropan-2-yl)oxy]benzonitrile], the IC50 is 100 to 1000 nM.
As for `COc1c(C#N)ccc(OC(C)C(F)(F)F)c1C(=O)N1CC(c2ccc(F)c(F)c2)C1` (centres unmarked) [Example 101, 3-{[3-(3,4-Difluorophenyl)azetidin-1-yl]carbonyl}-2-methoxy-4-[(1,1,1-trifluoropropan-2-yl)oxy]benzonitrile], the IC50 was under 100 nM.
Regarding `COc1c(C#N)ccc(OC(C)C(F)(F)F)c1C(=O)N1CC(Oc2cccnc2)C1` (centres unmarked) [Example 102, 2-Methoxy-3-{[3-(pyridin-3-yloxy)azetidin-1-yl]carbonyl}-4-[(1,1,1-trifluoropropan-2-yl)oxy]benzonitrile], the IC50 was 100 to 1000 nM.
With `CC(Oc1ccc(C#N)c(Cl)c1C(=O)N1CC(Oc2cccnc2)C1)C(F)(F)F` (centres unmarked) [Example 103, 2-Chloro-3-{[3-(pyridin-3-yloxy)azetidin-1-yl]carbonyl}-4-[(1,1,1-trifluoropropan-2-yl)oxy]benzonitrile] the figure was under 100 nM; with `COc1c(C#N)ccc(C2(F)CCC2)c1C(=O)N1CC(c2ccc(C#N)cc2)C1` [Example 104, 3-{[3-(4-Cyanophenyl)azetidin-1-yl]carbonyl}-4-(1-fluorocyclobutyl)-2-methoxybenzonitrile], 100 to 1000 nM; with `N#Cc1ccc(OCC(F)(F)F)c(C(=O)N2CC(c3ccc(C(F)(F)F)cc3)C2)c1Cl` [Example 105, 2-Chloro-4-(2,2,2-trifluoroethoxy)-3-({3-[4-(trifluoromethyl)phenyl]azetidin-1-yl}carbonyl)benzonitrile], 100 to 1000 nM.
Consider `N#Cc1ccc(C2CN(C(=O)c3c(OCC(F)(F)F)ccc(C#N)c3Cl)C2)cc1` [Example 106, 2-Chloro-3-{[3-(4-cyanophenyl)azetidin-1-yl]carbonyl}-4-(2,2,2-trifluoroethoxy)benzonitrile], for which the IC50 was under 100 nM.
Consider `C[C@H](Oc1ccc(C#N)c(Cl)c1C(=O)N1CC(c2ccc(C(F)(F)F)cc2)C1)C(F)(F)F` [Example 107, 2-Chloro-3-({3-[4-(trifluoromethyl)phenyl]azetidin-1-yl}carbonyl)-4-{[(2S)-1,1,1-trifluoropropan-2-yl]oxy}benzonitrile], for which the IC50 was under 100 nM.
With `COc1c(C#N)ccc(O[C@@H](C)C(F)(F)F)c1C(=O)N1CC(c2ccc(C#N)cc2)C1` [Example 108, 3-{[3-(4-Cyanophenyl)azetidin-1-yl]carbonyl}-2-methoxy-4-{[(2S)-1,1,1-trifluoropropan-2-yl]oxy}benzonitrile] the figure was 1000 to 10000 nM; with `C[C@H](Oc1ccc(C#N)c(Cl)c1C(=O)N1CC(c2ccc(C#N)cc2)C1)C(F)(F)F` [Example 109, 2-Chloro-3-{[3-(4-cyanophenyl)azetidin-1-yl]carbonyl}-4-{[(2S)-1,1,1-trifluoropropan-2-yl]oxy}benzonitrile], 100 to 1000 nM.
As for `Cc1cncc(C2CN(C(=O)c3c(OC(C)C(F)(F)F)ccc(C#N)c3Cl)C2)c1` (centres unmarked) [Example 110, 2-Chloro-3-{[3-(5-methylpyridin-3-yl)azetidin-1-yl]carbonyl}-4-[(1,1,1-trifluoropropan-2-yl)oxy]benzonitrile], the IC50 is 100 to 1000 nM.
Turning to `COc1c(C#N)ccc(OC(C)C(F)(F)F)c1C(=O)N1CC(c2cncc(C)c2)C1` (centres unmarked) [Example 111, 2-Methoxy-3-{[3-(5-methylpyridin-3-yl)azetidin-1-yl]carbonyl}-4-[(1,1,1-trifluoropropan-2-yl)oxy]benzonitrile], the IC50 is 100 to 1000 nM.
With `CC(Oc1ccc(C#N)c(Cl)c1C(=O)N1CC(c2ccc(C(F)(F)F)nc2)C1)C(F)(F)F` (centres unmarked) [Example 112, 2-Chloro-3-({3-[6-(trifluoromethyl)pyridin-3-yl]azetidin-1-yl}carbonyl)-4-[(1,1,1-trifluoropropan-2-yl)oxy]benzonitrile], the IC50 was under 100 nM.
Consider `COc1c(C#N)ccc(OC(C)C(F)(F)F)c1C(=O)N1CC(c2ccc(C(F)(F)F)nc2)C1` (centres unmarked) [Example 113, 2-Methoxy-3-({3-[6-(trifluoromethyl)pyridin-3-yl]azetidin-1-yl}carbonyl)-4-[(1,1,1-trifluoropropan-2-yl)oxy]benzonitrile], for which the IC50 was under 100 nM.
As to `COc1c(C#N)ccc(O[C@@H](C)C(F)(F)F)c1C(=O)N1CC(c2ncc(C(F)(F)F)cc2Cl)C1` [Example 114, 3-({3-[3-Chloro-5-(trifluoromethyl)pyridin-2-yl]azetidin-1-yl}carbonyl)-2-methoxy-4-{[(2S)-1,1,1-trifluoropropan-2-yl]oxy}benzonitrile], the IC50 was 100 to 1000 nM.
With `COc1c(C#N)ccc(O[C@@H](C)C(F)(F)F)c1C(=O)N1CC(c2ccc(C(F)F)cn2)C1` [Example 115, 3-({3-[5-(Difluoromethyl)pyridin-2-yl]azetidin-1-yl}carbonyl)-2-methoxy-4-{[(2S)-1,1,1-trifluoropropan-2-yl]oxy}benzonitrile] the figure was 100 to 1000 nM; with `COc1c(C#N)ccc(O[C@@H](C)C(F)(F)F)c1C(=O)N1CC(c2ccc(C#N)c(F)c2)C1` [Example 116, 3-{[3-(4-Cyano-3-fluorophenyl)azetidin-1-yl]carbonyl}-2-methoxy-4-{[(2S)-1,1,1-trifluoropropan-2-yl]oxy}benzonitrile], under 100 nM.
`COc1c(C#N)ccc(C2(F)CCOCC2)c1C(=O)N1CC(c2ncc(C(F)(F)F)cc2Cl)C1` [Example 117, 3-({3-[3-Chloro-5-(trifluoromethyl)pyridin-2-yl]azetidin-1-yl}carbonyl)-4-(4-fluorooxan-4-yl)-2-methoxybenzonitrile]: the IC50 is under 100 nM.
With `COc1c(C#N)ccc(O[C@@H](C)C(F)(F)F)c1C(=O)N1CC(c2ccc(C#N)cc2Cl)C1` [Example 118, 3-{[3-(2-Chloro-4-cyanophenyl)azetidin-1-yl]carbonyl}-2-methoxy-4-{[(2S)-1,1,1-trifluoropropan-2-yl]oxy}benzonitrile] the figure was under 100 nM.
